These results are taken from patent US8501787B2, “Compounds for the inhibition of angiogenesis and use thereof” (Shire Orphan Therapies GmbH, priority 2004, dated 2013).

For one assay, the target named is T1, integrin alphavbeta3 (Homo sapiens, UniProt P05106+P06756).
T1 construct: purchased Chemicon (Chemicon Europe, Germany)
Kind of assay: Vitronectin binding assay, alphavbeta3 (competitive ELISA). To be noted: inhibition of integrin binding to vitronectin. As to the method: (§1) The optimal concentrations of integrin and ligand were selected from ELISA binding studies with variable concentrations of both to obtain optimal signal noise ratio for further studies. IC50 studies were performed with fixed concentration of ligand and integrin and a serial dilution of inhibitor. The plates were measured with SpectraMax Plus reader (Molecular Devices). The resulting inhibition curves were analyzed using SoftMaxPro 4.0 software, the turning point describes the IC50 value.
(§2) Fibronectin and Vitronectin were purchased from Sigma, fibrinogen from Calbiochem. (EMD Biosciences, Darmstadt, Germany) The integrin alpha5beta1 extracellular domain Fc-fusion was expressed and purified as described in (Coe, 2001, JBC, 276, 35854). Integrins alphavbeta3 and alphavbeta5 were purchased from Chemicon (Chemicon Europe, Germany) and alphaIIbbeta3 form Kordia (Kordia Life Science, Leiden, Netherlands)
Vitronectin was diluted with coating buffer (15 mM Na2CO3, 35 mM NaHCO3, pH9.6) and coated with 100 μL/well to Nunc-Immuno maxisorp plates over night at 4° C. After discarding the coating solution plates were washed 3 times with buffer 1 (25 mM Tris, pH7.6, 150 mM NaCl, 1 mM MnCl2, 1 mg/mL BSA) and blocked with 100 μL blocking buffer (3% BSA in PBS 0.1% Tween20) for 1 hour at room temperature. […] The developed colour was measured at 450 nm and analyzed as described above.
On the technique in general: An ELISA detects its analyte on a solid surface through an enzyme-linked reagent.

The test system of assay [1] is K562 erythroleukemia cells. As to the kind of experiment: Cell adhesion assay with K562 on fibronectin. Conditions: at 0.5 μM; OD 570. Format: cell-based. As to the method: K562 erythroleukemia cells were obtained from the German Collection of Microorganisms and Cell Cultures GmbH (DMSZ, Braunschweig, Germany). Cells were cultured in RPMI medium containing 10% fetal calf serum, 2 mM glutamine and 100 U/mL penicillin-streptomycin (all from Biochrom AG, Germany).
The cell adhesion assays were performed in 96-well Nunc-Immuno maxisorp plates. The wells were coated for 1 h at 37° C. with 100 μL aliquots of fibronectin (10 μg/mL in phosphate-buffered-saline, 120-kDa fragment, Chemicon Europe, Germany), then blocked with 10 mg/mL heat denatured BSA in phosphate buffer for 30 min.
K562 cells were resuspended to 4×10^6 cells/mL in […], 25 mM Hepes, 2 mM EDTA, pH 7.4, and incubated for 30 min at 37° C. As a next step the cells were washed two times with the same buffer. 100 μL cell aliquots were then added to 100 μL aliquots of the same buffer with in addition 4 mM MgCl2, […] and different concentrations of compounds. These samples were preincubated for 30 min at 37° C. After that 100 μL aliquots were transferred to the microtiter wells and the cells were allowed to adhere to the substrate for 30 min at 37° C. in a humidified atmosphere of 5% CO2. […]
The absorbance of each well at 570 nm was then measured using the SpectraMax Plus reader. […]

A further assay addresses T2, integrin alpha5beta1 (Homo sapiens, UniProt P05556+P08648).
T2 construct: The integrin alpha5beta1 extracellular domain Fc-fusion was expressed and purified; made in house
As to the kind of experiment: Alpha5beta1-Fibronectin binding assay (competitive ELISA). The protocol: as §1, §2
Fibronectin was diluted with coating buffer (15 mM Na2CO3, 35 mM NaHCO3, pH9.6) and coated with 100 μL/well to Nunc-Immuno maxisorp plates (Nalge Nunc Europe Ltd) over night at 4° C. After discarding the coating solution plates were washed 3 times with buffer 1 ([…], pH7.6, 150 mM NaCl, 1 mM […], 1 mg/mL BSA) and blocked with 100 μL blocking buffer (3% BSA in PBS 0.1% Tween20) for 1 hour at room temperature. After washing the blocked plates (3 times) with buffer 1, integrin (50 μL) and either inhibitor (serial dilution in buffer 1) or buffer 1 (50 μL) were added to the wells and incubated for one hour at RT. Plates were then washed (3 times) with buffer 1 and incubated with 100 μL of anti-human-Fc-HRP antibody conjugate (Sigma-Aldrich, Taufkirchen, Germany) in buffer 1 for 1 hour at RT. After additional washing steps (3 times) with buffer 1 50 μL of HRP substrate solution TMB (Seramun, Germany) were added to the wells. Colour development was stopped after 3-5 minutes with 50 μL 1M H2SO4. The developed colour was measured at 450 nm and analyzed as described above.

Another assay deals with T3, integrin alphavbeta5 (Homo sapiens, UniProt P06756+P18084).
T3 construct: purchased Chemicon (Chemicon Europe, Germany)
As to the kind of experiment: Vitronectin binding assay, alphavbeta5 (competitive ELISA). To be noted: inhibition of integrin binding to vitronectin. As to the method: as §1, §2
Vitronectin was diluted with coating buffer (15 mM Na2CO3, 35 mM NaHCO3, pH9.6) and coated with 50 μL/well to Nunc-Immuno maxisorp plates over night at 4° C. […]
Plates were then washed (3 times) with buffer 2 and incubated with 50 μL of anti-alphavbeta5 antibody (Chemicon) in buffer 2 for 1 hour at RT. […] The developed colour was measured at 450 nm and analyzed as described above.

Another assay deals with T4, integrin alphaIIbbeta3 (Homo sapiens, UniProt P05106+P08514).
T4 construct: purchased Kordia (Kordia Life Science, Leiden, Netherlands)
As to the kind of experiment: AlphaIIbbeta3-Fibrinogen binding assay (competitive ELISA). Conditions: inhibition of integrin binding to fibrinogen; read-out: IC50 alphabIIbbeta3 in nM. The protocol:
as §1, §2
Fibrinogen was diluted with coating buffer (15 mM Na2CO3, 35 mM NaHCO3, pH9.6) and coated with 100 μL/well to Nunc-Immuno maxisorp plates over night at 4° C. After discarding the coating solution plates were washed 3 times with buffer 1 (25 mM Tris, pH7.6, 150 mM NaCl, 1 mM MnCl2, 1 mg/mL BSA) and blocked with 100 μL blocking buffer (3% BSA in PBS 0.1% Tween20) for 1 hour at room temperature. […] The developed colour was measured at 450 nm and analyzed as described above.

In another assay the test system is retinal angiogenesis. As to the kind of experiment: Physiological retinal angiogenesis at newborn rats. The class given is in vivo, Sprague Dawley rats. To be noted: intravitreal injection at P1 and P3, evaluated at P6, compared to vehicle treated and non-treated eye. The source says: Rats are born with a completely avascular retina with physiological retinal vascular development occurring in a centripetal manner within the first two weeks of life. At postnatal day P6 approximately 65% is physiologically vascularized, with vascularization being complete by P10-14.
Sprague Dawley rats were used according to protocols which are in conformity with the Association for Research in Vision and Ophthalmology's statements on the Use of Animals in Ophthalmic Research.
Rat pups were taken from within 24 h of birth and injected intravitreally at P1 with 3 μL of selected compound solved in saline. The same injection was repeated at P3. Controls include vehicle injected, as well as uninjected eyes. The animals were sacrificed by decapitation at P6. Upon sacrifice the eyes were enucleated and fixed in 10% buffered formalin phosphate (Fisher Scientific) for 30 minutes at RT. The retinas were dissected and post-fixed in methanol for 10 minutes at −20° C. The retinas were washed with 1% Triton X-100 in PBS and incubated overnight with a 1/100 solution of TRITC conjugated lectin griffonia simplicifolia (Sigma-Aldrich) in 1% Triton X-100 in PBS. […] The percentage of total vascularized area was calculated as a percent of the vascularized area over the total surface area (Adobe-Photoshop).

[2] abbreviates: inhibition of integrin binding to fibronectin, read-out: IC50 alpha5beta1 in nM.
[3] abbreviates: method of section 1.1, read-out: Group (binding activities to integrin alpha5beta1).

Molecules are shown by their SMILES. Where two headings read alike, the source gives them in different places.

Turning to `Cc1cc(C)c(C(=O)N[C@@H](CNC(=O)CO[C@@H]2C[C@@H](CNc3ccccn3)N(C(=O)OCc3ccccc3)C2)C(=O)O)c(C)c1` [Compound 71, 4-{[2-Carboxy-2-(2,4,6-trimethyl-benzoylamino)-ethylcarbamoyl]-methoxy}-2-(pyridin-2-ylaminomethyl)-pyrrolidine-1-carboxylic acid benzyl ester], the IC50 on integrin alphavbeta3 is about 30000 nM; on integrin alpha5beta1 (setting [2]), 2.4 nM; at integrin alpha5beta1 (setting [3]), under 10 nM; at integrin alphavbeta5, over 50000 nM; at integrin alphaIIbbeta3, over 50000 nM. For the same compound, the “inhibition of K562 cell adhesion to fibronectin” value in assay [1] is “significantly active in inhibiting cell adhesion”.
For the compound `Cc1cc(C)c(S(=O)(=O)N[C@@H](CNC(=O)CO[C@@H]2C[C@@H](CNc3ccccn3)N(C(=O)OCc3ccccc3)C2)C(=O)O)c(C)c1` [Compound 5, 12S,14R,30S-4-{[2-Carboxy-2-(2,4,6-trimethyl-benzenesulfonylamino)-ethylcarbamoyl]-methoxy}-2-(pyridin-2-ylaminomethyl)-pyrrolidine-1-carboxylic acid benzyl ester], the IC50 is 11.6 nM on integrin alphavbeta3; 3.7 nM at integrin alpha5beta1 (setting [2]); under 10 nM on integrin alpha5beta1 (setting [3]); 230 nM on integrin alphavbeta5; 9000 nM at integrin alphaIIbbeta3. The “retinal angiogenesis (vessel area, % of total retinal area)” value in the assay on retinal angiogenesis is “significantly reduced”.
